Experimental data published in patent publication US7977477B2, “Benzimidazole derivatives and their use as protein kinase inhibitors” (Astex Therapeutics, Limited, priority 2003, dated 2011).

Columns and labels:
CDK1/cyclinB = CDK1/cyclinB (Homo sapiens, UniProt P06493); test: CDK selectivity assay, CDK1; format: biochemical; conditions: read-out: IC50 against CDK 1
Description: (§1) Compounds of the invention were tested for kinase inhibitory activity against a number of different kinases using the general protocol described in Example 129, but modified as set out below.
(§2) Kinases are diluted to a 10× working stock in 20 mM MOPS pH 7.0, 1 mM EDTA, 0.1% γ-mercaptoethanol, 0.01% Brij-35, 5% glycerol, 1 mg/ml BSA. One unit equals the incorporation of 1 nmol of phosphate per minute into 0.1 mg/ml histone H1, or CDK7 substrate peptide at […] with a final ATP concentration of 100 uM.
(§3) The substrate for all the CDK assays (except CDK7) is histone H1, diluted to 10× working stock in 20 mM MOPS pH 7.4 prior to use. The substrate for CDK7 is a specific peptide diluted to 10× working stock in deionised water.
(§4) Assay Procedure for CDK1/cyclinB, CDK2/cyclinA. CDK2/cyclinE, CDK3/cyclinE, CDK5/p35. CDK6/cyclinD3:
(§5) In a final reaction volume of 25 μl, the enzyme (5-10 mU) is incubated with 8 mM MOPS pH 7.0, 0.2 mM EDTA, 0.1 mg/ml histone H1, 10 mM MgAcetate and [γ-^33P-ATP] (specific activity approx 500 cpm/pmol, concentration as required). The reaction is initiated by the addition of Mg^2+ [γ-^33P-ATP]. After incubation for 40 minutes at room temperature the reaction is stopped by the addition of 5 μl of a 3% phosphoric acid solution. 10 ml of the reaction is spotted onto a P30 filter mat and washed 3 times for 5 minutes in 75 mM phosphoric acid and once in methanol prior to drying and counting.

CDK3/cyclinE = CDK3/cyclinE (Homo sapiens, UniProt Q00526); test: CDK selectivity assay, CDK3; format: biochemical; conditions: read-out: IC50 against CDK 3
Description: as §1, §2, §3, §4, §5

CDK5/p35 = CDK5/p35 (Homo sapiens, UniProt Q00535); test: CDK selectivity assay, CDK5; format: biochemical; conditions: read-out: IC50 against CDK 5
Description: as §1, §2, §3, §4, §5

GSK3β (human) = GSK3β (human) (Homo sapiens, UniProt P49841); test: Inhibitory activity against glycogen synthase kinase-3 (GSK-3); format: biochemical; conditions: read-out: IC50 against GSK30
Description: GSK3β (human) is diluted to a 10× working stock in 50 mM Tris pH 7.5, 0.1 mM EGTA, 0.1 mM sodium vanadate, 0.1% β-mercaptoethanol, 1 mg/ml BSA. One unit equals the incorporation of 1 nmol of phosphate per minute phospho-glycogen synthase peptide 2 per minute.
as §5, with “GSK3β” for “the enzyme”, “MOPS” for “MOPS pH”, “20 μM […](p)EDEEE (phospho GS2 peptide),” for “0.1 mg/ml histone H1,”, “Mg^2+[γ-^33P-ATP].” for “Mg^2+ [γ-^33P-ATP].”, “μl” for “ml”, “50” for “75”

CDK2/CyclinA = molecular target: T1, CDK2/CyclinA (Homo sapiens, UniProt P24941); test: CDK2 kinase inhibitory activity (Example 306, Protocol A or B); format: biochemical; conditions: for IC50: protocol of Example 306, read-out: IC50 (CDK inhibitory activity); for inhibition at 0.003 µM: read-out: % inhibition (CDK inhibitory activity)
T1 construct: purchased Upstate Biotechnology
Description: Compounds of the invention were tested for kinase inhibitory activity using either Protocol A or Protocol B.
1.7 μl of active CDK2/CyclinA (Upstate Biotechnology, 10 U/μl) is diluted in assay buffer (250 μl of 10× strength assay buffer (200 mM MOPS pH 7.2, 250 mM β-glycerophosphate, 50 mM EDTA, 150 mM MgCl2), 11.27 μl 10 mM ATP, 2.5 μl 1M DTT, 25 μl 100 mM sodium orthovanadate, 708.53 μl H2O), and 10 μl mixed with 10 μl of histone substrate mix (60 μl bovine histone H1 (Upstate Biotechnology, 5 mg/ml), 940 μl H2O, 35 μCi γ^33P-ATP) and added to 96 well plates along with 5 μl of various dilutions of the test compound in DMSO (up to 2.5%). The reaction is allowed to proceed for 5 hours before being stopped with an excess of ortho-phosphoric acid (30 μl at 2%).
(§6) γ^33P-ATP which remains unincorporated into the histone H1 is separated from phosphorylated histone H1 on a Millipore MAPH filter plate. The wells of the MAPH plate are wetted with 0.5% orthophosphoric acid, and then the results of the reaction are filtered with a Millipore vacuum filtration unit through the wells. Following filtration, the residue is washed twice with 200 μl of 0.5% orthophosphoric acid. Once the filters have dried, 25 μl of Microscint 20 scintillant is added, and then counted on a Packard Topcount for 30 seconds.
The % inhibition of the CDK2 activity is calculated and plotted in order to determine the concentration of test compound required to inhibit 50% of the CDK2 activity (IC50).
Activated CDK2/CyclinA (Brown et al, Nat. Cell Biol., 1, pp 438-443, 1999; Lowe, E. D., et al Biochemistry, 41, pp 15625-15634, 2002) is diluted to 125 pM in 2.5× strength assay buffer (50 mM MOPS pH 7.2, 62.5 mM O-glycerophosphate, 12.5 mM EDTA, 37.5 mM MgCl2, […], 2.5 mM DTT, 2.5 mM sodium orthovanadate, 0.25 mg/ml bovine serum albumin), and 10 fi mixed with 10 A1 of histone substrate mix (60 μl bovine histone H1 (Upstate Biotechnology, 5 mg/ml), 940 μl H2O, 35 μCi γ^33P-ATP) and added to 96 well plates along with 5 μl of various dilutions of the test compound in DMSO (up to 2.5%). The reaction is allowed to proceed for 2 to 4 hours before being stopped with an excess of ortho-phosphoric acid (5 μl at 2%).
as §6, with “20” for “25”

HCT-116 cell line = test: Anti-proliferative activity, inhibition of cell growth (Alamar Blue assay); format: cell-based; conditions: Homo sapiens, 72 hours with compound
Description: The anti-proliferative activity of the compounds of the invention has been determined by measuring inhibition of cell growth in the HCT-116 cell line.
The anti-proliferative activities of compounds of the invention were determined by measuring the ability of the compounds to inhibition of cell growth in a number of cell lines. Inhibition of cell growth was measured using the Alamar Blue assay (Nociari, M. M, Shalev, A., Benias, P., Russo, C. Journal of Immunological Methods 1998, 213, 157-167). The method is based on the ability of viable cells to reduce resazurin to its fluorescent product resorufin. For each proliferation assay cells were plated onto 96 well plates and allowed to recover for 16 hours prior to the addition of inhibitor compounds for a further 72 hours. At the end of the incubation period 10% (v/v) Alamar Blue was added and incubated for a further 6 hours prior to determination of fluorescent product at […]. In the case of the non-proliferating cell assay cells were maintained at confluence for 96 hour prior to the addition of inhibitor compounds for a further 72 hours. The number of viable cells was determined by Alamar Blue assay as before. All cell lines were obtained from ECACC (European Collection of cell Cultures).

Sequence of CDK3/cyclinE (Q00526 whole entry): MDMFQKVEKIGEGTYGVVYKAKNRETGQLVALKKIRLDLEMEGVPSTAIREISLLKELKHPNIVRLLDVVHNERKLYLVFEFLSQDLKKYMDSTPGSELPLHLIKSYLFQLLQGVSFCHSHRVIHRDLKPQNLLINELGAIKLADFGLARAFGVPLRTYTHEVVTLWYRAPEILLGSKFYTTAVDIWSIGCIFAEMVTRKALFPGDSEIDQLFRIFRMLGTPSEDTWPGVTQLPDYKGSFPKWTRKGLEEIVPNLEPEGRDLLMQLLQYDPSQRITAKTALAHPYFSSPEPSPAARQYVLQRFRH
Sequence of CDK3/cyclinE (P24864 whole entry partner): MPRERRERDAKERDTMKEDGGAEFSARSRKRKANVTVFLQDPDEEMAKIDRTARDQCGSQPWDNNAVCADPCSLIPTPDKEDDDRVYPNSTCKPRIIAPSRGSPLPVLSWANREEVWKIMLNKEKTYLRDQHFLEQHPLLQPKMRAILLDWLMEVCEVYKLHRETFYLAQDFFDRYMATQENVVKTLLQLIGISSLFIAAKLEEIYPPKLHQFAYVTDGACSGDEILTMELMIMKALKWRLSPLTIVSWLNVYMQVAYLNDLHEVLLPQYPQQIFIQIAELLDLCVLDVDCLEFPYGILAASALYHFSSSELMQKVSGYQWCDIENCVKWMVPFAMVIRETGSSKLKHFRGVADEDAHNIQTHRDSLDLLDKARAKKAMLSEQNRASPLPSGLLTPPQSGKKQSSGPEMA
Sequence of CDK5/p35 (Q00535 whole entry): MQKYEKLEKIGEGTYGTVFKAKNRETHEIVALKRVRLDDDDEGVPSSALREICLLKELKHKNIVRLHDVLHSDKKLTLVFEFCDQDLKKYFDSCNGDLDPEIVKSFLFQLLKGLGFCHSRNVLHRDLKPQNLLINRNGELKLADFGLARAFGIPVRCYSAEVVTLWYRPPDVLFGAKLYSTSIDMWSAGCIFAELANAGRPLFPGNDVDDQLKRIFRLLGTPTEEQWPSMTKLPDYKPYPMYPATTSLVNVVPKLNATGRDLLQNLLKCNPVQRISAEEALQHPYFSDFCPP
Sequence of CDK5/p35 (Q15078 whole entry partner): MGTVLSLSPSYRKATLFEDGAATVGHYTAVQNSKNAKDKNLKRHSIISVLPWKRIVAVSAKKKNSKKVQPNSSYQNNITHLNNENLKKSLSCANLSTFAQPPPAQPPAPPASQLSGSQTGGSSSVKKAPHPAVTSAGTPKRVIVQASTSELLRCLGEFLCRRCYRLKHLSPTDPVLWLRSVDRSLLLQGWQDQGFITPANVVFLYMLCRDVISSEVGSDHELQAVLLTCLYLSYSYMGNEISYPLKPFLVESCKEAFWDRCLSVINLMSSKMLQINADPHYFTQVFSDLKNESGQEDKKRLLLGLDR
Sequence of CDK1/cyclinB (P06493 whole entry): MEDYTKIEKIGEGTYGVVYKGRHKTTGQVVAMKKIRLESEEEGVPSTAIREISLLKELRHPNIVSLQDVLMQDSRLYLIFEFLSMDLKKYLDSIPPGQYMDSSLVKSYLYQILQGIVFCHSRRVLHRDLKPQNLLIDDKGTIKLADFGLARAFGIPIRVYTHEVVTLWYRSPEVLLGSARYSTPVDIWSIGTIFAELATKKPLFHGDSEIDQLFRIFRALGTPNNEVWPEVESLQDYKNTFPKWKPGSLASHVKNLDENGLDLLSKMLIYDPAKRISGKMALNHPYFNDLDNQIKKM
Sequence of CDK1/cyclinB (P14635 whole entry partner): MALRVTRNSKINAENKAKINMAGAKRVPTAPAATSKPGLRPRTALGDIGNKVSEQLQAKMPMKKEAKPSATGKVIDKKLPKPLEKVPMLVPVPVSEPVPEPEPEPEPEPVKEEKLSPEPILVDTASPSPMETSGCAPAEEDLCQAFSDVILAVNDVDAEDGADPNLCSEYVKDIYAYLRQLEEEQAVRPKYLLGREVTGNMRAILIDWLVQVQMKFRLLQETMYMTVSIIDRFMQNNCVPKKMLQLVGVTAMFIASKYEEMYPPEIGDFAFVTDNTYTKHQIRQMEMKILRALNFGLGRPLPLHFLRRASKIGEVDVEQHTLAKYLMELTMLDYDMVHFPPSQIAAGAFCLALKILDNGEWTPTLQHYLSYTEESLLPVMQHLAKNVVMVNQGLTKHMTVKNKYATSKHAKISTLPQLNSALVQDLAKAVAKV
Sequence of GSK3β (human) (P49841 whole entry): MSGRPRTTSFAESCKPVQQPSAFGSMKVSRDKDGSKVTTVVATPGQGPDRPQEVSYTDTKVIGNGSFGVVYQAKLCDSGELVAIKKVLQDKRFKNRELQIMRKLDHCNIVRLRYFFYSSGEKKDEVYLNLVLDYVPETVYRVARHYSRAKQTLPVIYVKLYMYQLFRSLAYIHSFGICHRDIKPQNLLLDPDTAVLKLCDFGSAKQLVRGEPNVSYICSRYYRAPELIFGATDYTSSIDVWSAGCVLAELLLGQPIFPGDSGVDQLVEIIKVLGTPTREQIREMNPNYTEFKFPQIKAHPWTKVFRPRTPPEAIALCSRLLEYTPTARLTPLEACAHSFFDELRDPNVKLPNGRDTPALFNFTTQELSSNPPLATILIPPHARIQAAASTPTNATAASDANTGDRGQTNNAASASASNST

Row | SMILES | IC50 (CDK1/cyclinB) | IC50 (CDK3/cyclinE) | IC50 (CDK5/p35) | inhibition at 0.003 µM (CDK2/CyclinA) | other results
1 | O=C(Nc1c[nH]nc1-c1nc2c(CN3CCOCC3)cccc2[nH]1)c1c(F)cccc1F [Example 12, 2,6-Difluoro-N-[3-(4-morpholin-4-yl-methyl-1H-benzimidazol-2-yl)-1H-pyrazol-4-yl]-benzamide] | < 1 µM | < 1 µM | < 1 µM | – | IC50 (GSK3β (human)): < 1 µM
2 | O=C(Nc1c[nH]nc1-c1nc2ccccc2[nH]1)c1c(F)cccc1F [Example 6, N-[3-(1H-Benzimidazol-2-yl)-1H-pyrazol-4-yl]-2,6-difluoro-benzamide] | < 1 µM | < 1 µM | < 1 µM | – | IC50 (CDK2/CyclinA): 0.0048 µM; IC50 (GSK3β (human)): < 1 µM
3 | CN1CCN(Cc2cccc3[nH]c(-c4n[nH]cc4NC(=O)c4c(F)cccc4F)nc23)CC1 [Example 13, 2,6-Difluoro-N-[3-(N-methyl-piperazinyl-4-ylmethyl-1H-benzimidazol-2-yl)-1H-pyrazol-4-yl]-benzamide] | < 1 µM | < 1 µM | < 1 µM | – | –
4 | O=C(Nc1c[nH]nc1-c1nc2ccccc2[nH]1)c1c(Cl)cccc1Cl [Example 59] | – | – | – | 67% | –
5 | Cc1cc2nc(-c3n[nH]cc3NC(=O)c3c(F)cccc3F)[nH]c2cc1C [Example 73] | – | – | – | – | IC50 (CDK2/CyclinA): 0.0046 µM; IC50 (HCT-116 cell line): 0.49 µM
6 | O=C(Nc1c[nH]nc1-c1nc2ccccc2[nH]1)c1ccccc1 [Compound A, reference compound] | – | – | – | – | IC50 (CDK2/CyclinA): 0.0967 µM
7 | Cc1cccc(Cl)c1C(=O)Nc1c[nH]nc1-c1nc2ccccc2[nH]1 [Example 57] | – | – | – | 41% | –
8 | COc1cccc(F)c1C(=O)Nc1c[nH]nc1-c1nc2ccccc2[nH]1 [Example 44] | – | – | – | 57% | –
9 | O=C(Nc1c[nH]nc1-c1nc2ccccc2[nH]1)c1c(F)cccc1Cl [Example 43] | – | – | – | 52% | –
10 | Cc1ccc(C(=O)Nc2c[nH]nc2-c2nc3cc(C)c(C)cc3[nH]2)cc1 [Compound B, reference compound] | – | – | – | – | IC50 (CDK2/CyclinA): 3 µM; IC50 (HCT-116 cell line): 5.7 µM
11 | COc1cc(F)c(C(=O)Nc2c[nH]nc2-c2nc3ccccc3[nH]2)c(F)c1 [Example 41] | < 1 µM | < 1 µM | < 1 µM | – | –
12 | CC(C)(C)NCc1cccc2[nH]c(-c3n[nH]cc3NC(=O)c3c(F)cccc3F)nc12 [Example 14, N-{3-[4-(tert-Butylamino-methyl)-1H-benzimidazol-2-yl]-1H-pyrazol-4-yl}-2,6-difluoro-benzamide] | < 1 µM | < 1 µM | < 1 µM | – | –
13 | O=C(Nc1c[nH]nc1-c1nc2ccccc2[nH]1)c1c(F)cc(F)cc1F [Example 56] | – | – | – | 58% | –
14 | CN1CCN(C(=O)c2ccc3[nH]c(-c4n[nH]cc4NC(=O)c4c(F)cccc4F)nc3c2)CC1 [Example 21, 2,6-Difluoro-N-{3-[5-(4-methyl-piperazine-1-carbonyl)-1H-benzimidazol-2-yl]-1H-pyrazol-4-yl}-benzamide] | < 1 µM | < 1 µM | < 1 µM | – | –
